Assays:
[1] = tested on: MDCK1 (Madin–Darby canine kidney) cells; test: MTT antiproliferative assay, non-tumor MDCK1 cells; assay type: cell-based; conditions: Canis lupus familiaris, MDCK1, 72 h, mean ± SD of three independent experiments, normal cells
Method: (§1) The growth inhibition activity was assessed according to the slightly modified procedure performed at the National Cancer Institute, Developmental Therapeutics Program.
(§2) Examined compounds were dissolved in DMSO (1 × 10^−2 M). The experiments were carried out on seven human tumor cell lines and two normal cell lines. The following cell lines were used: HeLa (human cervical adenocarcinoma; purchased from ATCC), CaCo-2 (human colorectal adenocarcinoma), HuT78 (T-cell lymphoma), THP-1 (acute monocytic leukemia), SW620 (colorectal adenocarcinoma, metastatic), MDA-MB-231 (human breast adenocarcinoma), HL60 (promyelocytic leukemia cell line), foreskin fibroblast cells (BJ) and MDCK1 (Madine–Darby canine kidney fibroblast like cells). MDCK1 cells were used between 24 and 26 passages.
(§3) Adherent cells were cultured in the Dulbecco’s modified Eagle medium—DMEM (Gibco, EU) supplemented with 10 % heat-inactivated fetal bovine serum (FBS, Gibco, EU), 2 mM glutamine, and 100 U/0.1 mg penicillin/streptomycin. Cells on suspension were cultured in RPMI 1640 (Gibco, EU) medium supplemented with 10 % FBS (Gibco, EU), 2 mM glutamine, 1 mM sodium pyruvate, 10 mM HEPES. Cells were grown in humidified atmosphere under the conditions of 37 °C/5% of CO2 gas in the CO2 incubator (IGO 150 CELLlife^TM, JOUAN, Thermo Fisher Scientific, Waltham, MA, USA). A erythrosin B (Sigma-Aldrich, St. Louis, MO, USA) dye exclusion method was used to assess cell viability before plating.
(§4) Adherent cells (HeLa, CaCo-2, MCF-7 and MDCK-1) were plated in 96-well flat bottom plates (Greiner, Frickenhausen, Austria) at a concentration of 2 × 10^4 cells/mL. Suspension cells (THP-1 and HuT78) were plated in 96-well microtiter plates (Sarstead, Newton, USA) at a concentration of 1 × 10^5 cells/mL. Twenty-four hours later, cells were treated with test agents in […] 10-fold dilutions ([…] to 10^−4 M) and incubated for further 72 h. Working dilutions were freshly prepared on the day of testing. The solvent was also tested for eventual inhibitory activity by adjusting its concentration to be the same as in working concentrations. After 72 h of incubation, the cell growth rate was evaluated by performing the MTT assay, which detects dehydrogenase activity in viable cells. For this purpose, upon completion of the incubation period, growth medium was discarded and 50 μL of MTT was added to each well at a concentration of 5 mg/mL. After four hours of incubation at 37 °C, water insoluble MTT-formazan crystals were dissolved in 150 μL of dimethyl-sulfoxide (DMSO) for adherent cells, and in 10 % SDS with 0.01 M/L HCl for cells grown in suspension. The absorbance (OD, optical density) was measured on a microplate reader (iMark, BIO RAD, Hercules, CA, USA) at 595 nm.
(§5) Percent of life cells was calculated as follows: % = OD (sample)–OD (background)/OD (control)–OD (background) × 100.
(§6) Optical density (OD) of background for adherent cells is the OD of MTT solution and DMSO; OD (background) for suspension cells is OD of the culture medium with MTT and 10% SDS with 0.01 M/L HCl; OD (control) is the OD of the cells growth without tested compounds.
(§7) Calculation of GI50 value curves and QC analysis is performed by using the Excel tools and GraphPadPrism software (La Jolla, CA), v. 5.03. Briefly, individual concentration effect curves are generated by plotting the logarithm of the concentration of tested compounds(X) vs. corresponding percent inhibition values (Y) using least squares fit. The best fit GI50 values are calculated using Log (inhibitor) versus normalized response—Variable slope equation, where Y Ľ 100/(1 ţ 10 ((LogIC50 _ X) * HillSlope)). QC criteria parameters (Z0, S:B, R2, HillSlope) were checked for every GI50 curve.

[2] = tested on: HuT78 (T-cell lymphoma) cells; test: MTT antiproliferative assay, HuT78; assay type: cell-based, human; conditions: for IC50: Homo sapiens, HuT78, 72 h, 72 h, MTT, mean ± SD of three independent experiments; for SI (MDCK) HuT78: SI = IC50 MDCK1 / IC50 HuT78; for SI (BJ) HuT78: SI = IC50 BJ / IC50 HuT78
Method: as §1, §2, §3, §4, §5, §6, §7

[3] = tested on: HeLa (cervical adenocarcinoma) cells; test: MTT antiproliferative assay, HeLa; assay type: cell-based; conditions: Homo sapiens, 72 h, mean ± SD of three independent experiments
Method: as §1, §2, §3, §4, §5, §6, §7

[4] = tested on: CaCo-2 (colon adenocarcinoma) cells; test: MTT antiproliferative assay, CaCo-2; assay type: cell-based, human; conditions: for IC50: Homo sapiens, Caco-2, 72 h, MTT, mean ± SD of three independent experiments
Method: as §1, §2, §3, §4, §5, §6
as §7, with “The best fit GI50 values are calculated using Log (inhibitor) versus normalized response—Variable slope equation, where Y Ľ 100/(1 ţ 10 ((LogIC50 _ X) * HillSlope)).” left out

human fibroblasts (BJ) = test: MTT antiproliferative assay, normal BJ fibroblasts; assay type: cell-based; conditions: Homo sapiens, Fibroblast, 72 h, MTT, mean ± SD of three independent experiments; normal cells
Method: as §1, §2, §3, §4, §5, §6, §7

SMILES	IC50 [1] [µM]	IC50 [2] [µM]	SI (MDCK) HuT78 [2]	IC50 [3] [µM]	IC50 [4] [µM]	IC50 (human fibroblasts (BJ)) [µM]	melting point [°C]	antiproliferative effect on HuT78 cells (in words) [2]	SI (BJ) HuT78 [2]	SI (MDCK) CaCo-2 ([4]; SI = IC50 MDCK1 / IC50 CaCo-2)
Fc1cc(-c2nc3ccc(C4=NCCN4)cc3[nH]2)ccc1OCc1c[nH]nn1 [44b]	> 100	65.6 ± 17.3	1.52	> 100	> 100	45.1 ± 20.9				
Clc1ccc2nc(-c3ccc(OCc4cn(Cc5ccccc5)nn4)cc3)sc2c1 [24a, 6-Chloro-2-(4-((1-benzyl-1H-1,2,3-triazol-4-yl)methoxy)phenyl)benzothiazole]	11.4 ± 14.5	> 100		> 100	> 100	> 100	201 to 205			
O=C(COc1ccc(-c2nc3ccc(Cl)cc3s2)cc1)c1ccccc1 [15a, 6-Chloro-2-(4-(2-oxo-2-phenylethoxy)phenyl)benzothiazole]	> 100	> 100		> 100	> 100	> 100	192 to 195			
Cl.c1ccc(COc2ccc(-c3nc4ccc(C5=NCCN5)cc4s3)cc2)nc1 [35a, 2-(4-(Pyridin-2-ylmethoxy)phenyl)-6-(4,5-dihydro-1H-imidazol-2-yl)benzothiazole hydrochloride]	2.7 ± 0.3	1.4 ± 0.2		18.9 ± 3.6	26.7 ± 2.1	3.2 ± 0.3	> 250			
COc1cc(-c2nc3ccc(F)cc3s2)ccc1OCc1cn(Cc2ccccc2)nn1 [25c, 6-Fluoro-2-(3-methoxy-4-((1-benzyl-1H-1,2,3-triazol-4-yl)methoxy)phenyl)benzothiazole]	22.8 ± 4.9	> 100		> 100	77.6 ± 43.3	> 100	180 to 183			
c1cc(-c2nc3ccc(C4=NCCCN4)cc3s2)ccc1OCc1c[nH]nn1 [40a]	59.4 ± 18.8	> 100		> 100	> 100	> 100				
O=C(COc1ccc(-c2nc3ccc(C4=NCCN4)cc3[nH]2)cc1)N1CCOCC1 [47a]	> 100	> 100		> 100	> 100	> 100				
c1cc(-c2nc3ccc(C4=NCCN4)cc3[nH]2)ccc1OCc1c[nH]nn1 [44a]	> 100	89.2 ± 20.6	1.2	> 100	> 100	73.3 ± 3.2				
O=c1[nH]cc(F)c(=O)[nH]1 [5-FU, 5-Fluorouracil, reference compound]	55 ± 8.7	> 100		8.2 ± 1.9		74 ± 3.1		did not exhibit antiproliferative effect		
COc1cc(-c2nc3ccc(C4=NCCCN4)cc3s2)ccc1OCc1c[nH]nn1 [40c]	> 100	> 100		> 100	> 100	> 100				
CCN(CC)CCOc1ccc(-c2nc3ccc(C4=NCCN4)cc3[nH]2)cc1F [49b]	82.9 ± 6.6	> 100		> 100	> 100	64.8 ± 9.2				
CCN(CC)CCOc1ccc(-c2nc3ccc(C4=NCCN4)cc3[nH]2)cc1OC [49c]	> 100	> 100		> 100	> 100	> 100				
COc1cc(-c2nc3ccc(C4=NCCN4)cc3[nH]2)ccc1OCc1ccccn1 [43c]	63.4 ± 8.9	17.7 ± 6.1	3.58	> 100	> 100	30.9 ± 8.7			1.75	
COc1cc(-c2nc3ccc(C4=NCCCN4)cc3s2)ccc1OCc1cn(Cc2ccccc2)nn1 [41c]	> 100	> 100		> 100	> 100	> 100				
Fc1cc(-c2nc3ccc(C4=NCCCN4)cc3s2)ccc1OCc1c[nH]nn1 [40b]	> 100	37.3 ± 12.8	2.68	> 100	> 100	> 100			2.68	
c1ccc(Cn2cc(COc3ccc(-c4nc5ccc(C6=NCCCN6)cc5s4)cc3)nn2)cc1 [41a]	58.2 ± 17.3	4.1 ± 3.6	14.19	25.8 ± 0.8	29.2 ± 4.2	27.3 ± 6			6.65	1.99
Fc1cc(-c2nc3ccc(C4=NCCN4)cc3[nH]2)ccc1OCc1ccccn1 [43b]	> 100	43.3 ± 4.4	2.3	> 100	> 100	> 100			2.3	
c1cc(-c2nc3ccc(C4=NCCN4)cc3[nH]2)ccc1OCc1cn(CCN2CCOCC2)nn1 [46a]	> 100	63 ± 15.1	1.59	> 100	> 100	> 100			1.59	
CCN(CC)CCOc1ccc(-c2nc3ccc(C4=NCCN4)cc3[nH]2)cc1 [49a]	> 100	> 100		> 100	> 100	80.4 ± 9.9				
O=C(COc1ccc(-c2nc3ccc(C4=NCCN4)cc3[nH]2)cc1F)N1CCOCC1 [47b]	> 100	> 100		> 100	> 100	> 100				
COc1cc(-c2nc3ccc(C4=NCCN4)cc3[nH]2)ccc1OCCN1CCOCC1 [48c]	> 100	69.6 ± 25.9	1.44	> 100	> 100	> 100			1.44	
COc1cc(-c2nc3ccc(C4=NCCN4)cc3[nH]2)ccc1OCc1c[nH]nn1 [44c]	> 100	> 100		> 100	> 100	> 100				
O=C(COc1ccc(-c2nc3ccc(C4=NCCCN4)cc3s2)cc1)c1ccccc1 [38a]	27.1 ± 3.4	16.2 ± 5.5	1.67	19.7 ± 3.1	25.4 ± 3.5	22.6 ± 4.6			1.39	
Clc1ccc2nc(-c3ccc(OCc4ccccn4)cc3)sc2c1 [18a]	17.6 ± 5.7	13.2 ± 1.2		42.4 ± 7.5	> 100	> 100			3.2	
Fc1cc(-c2nc3ccc(C4=NCCN4)cc3[nH]2)ccc1OCCN1CCOCC1 [48b]	> 100	> 100		> 100	> 100	> 100				
c1cc(-c2nc3ccc(C4=NCCN4)cc3[nH]2)ccc1OCCN1CCOCC1 [48a]	> 100	> 100		> 100	> 100	> 100				

— publication PMC9785280, “Synthesis, Antiproliferative Evaluation and QSAR Analysis of Novel Halogen- and Amidino-Substituted Benzothiazoles and Benzimidazoles” (International Journal of Molecular Sciences, 2022)
